From US6514969B2, “β-amyloid inhibitors, processes for preparing them, and their use in pharmaceutical compositions” (Boehringer Ingelheim Pharma KG, priority 2000, dated 2003) come the findings set out here.

The test system of the test is Aβ formation in human astroglioma cells (U 373) transfected with human APP751 (U373-K10). Briefly: Inhibition of Aβ formation in medium of APP751-overexpressing U373-K10 cells (ELISA). The class given is cell-based. The settings on record: U373 MG. From the text: The compounds according to the invention are characterized in that they inhibit the process of the formation of Aβ or its release from cells. This property was investigated according to the test described below.
The inhibition of Aβ formation was investigated in the medium of a cell line overexpressing APP751. For this purpose, human astroglioma cells (U 373, ATCC) were stably transfected with the gene for human APP751 under the control of a CMV promoter (vector pRC-CMV). A clone with a high APP751 expression (U373-K10) was selected. In order to carry out the assay the cells are plated out in 96-well plates (Falcon) in Dulbecco's-Minimal-Essential medium (DMEM, Bio-Whittaker) with 10% FCS and cultivated to confluence at 37° C./5% CO2.
The substances to be tested are first dissolved in 100% DMSO and then diluted to the test concentration in culture medium, so that the DMSO concentration of the test solution is always below 0.5%.
150 μl of the test solution are added per well to a confluent culture plate which has previously been washed once with DMEM, and pre-incubated for about 16 hours. This solution is replaced by 150 μl of fresh test solution after 1 wash and incubated again for 4 hours.
100 μl of this four-hour supernatant are transferred to an ELISA plate (Nunc) coated with the antibody 6E10 (specific for Aβ1-16, Senetek), and incubated overnight at 4° C. The Aβ is determined the next day by means of the alkaline phosphatase-conjugated antibody 6B10, which is specific for Aβ32-40.
Take `O=c1[nH]c2ccccc2n1C1CCN(CCCc2c(-c3ccccc3)nc3ccccn23)CC1` [Example 12, 1-{1-[3-(2-phenylimidazo[1,2-a]pyridin-3-yl)propyl]piperidin-4-yl}-1,3-dihydrobenzimidazol-2-one]: the IC50 worked out at 12 µM. Regarding `O=c1[nH]c2ccccc2n1C1CCN(CCCc2c(-c3ccc(Cl)cc3)nc3ccccn23)CC1` [Example 13, 1-{1-[3-(2-p-chlorophenylimidazo[1,2-a]pyridin-3-yl)propyl]piperidin-4-yl}-1,3-dihydrobenzimidazol-2-one], the IC50 turned out to be 15 µM. For `Clc1ccc(-c2nc3ccccn3c2CCCN2CCN(Cc3ccccc3)CC2)cc1` [Example 14, 3-[3-(4-benzylpiperazin-1-yl)propyl]-2-(4-chlorophenyl)imidazo[1,2-a]pyridine] the value was 30 µM; for `Clc1ccc(CN2CCN(CCCc3c(-c4ccc(Cl)cc4)nc4ccccn34)CC2)cc1` [Example 20, 3-{3-[4-(4-chlorobenzyl)piperazin-1-yl]propyl}-2-(4-chlorophenyl)imidazo[1,2-a]pyridine], 35 µM.

`O=C(/C=C/c1c(-c2ccccc2)nc2ccccn12)N1CCC(n2c(=O)[nH]c3ccccc32)CC1` [Example 21] displayed a 50% inhibitory concentration (IC50) of 20 µM.
